Results on 6 compounds are retold here after US8354410B2 (Bristol-Meyers Squibb Company, priority 2010, dated 2013).

For data set [1], the target named is T1, HCV NS5B (Hepatitis C virus genotype 1b, UniProt Q9WMX2).
T1 construct: The protein was expressed with an 18 amino acid C-terminal truncation to enhance the solubility; made in house; host or cells: E. coli BL21(DE3)
The data set is described as follows: HCV NS5B RdRp enzyme assay. The data set is classed as biochemical. The conditions noted are these: HCV NS5B RdRp genotype 1b; standard or modified assay not specified. The protocol: HCV NS5B RdRp cloning, expression, and purification. The cDNA encoding the NS5B protein of HCV, genotype 1b, was cloned into the pET21a expression vector. The protein was expressed with an 18 amino acid C-terminal truncation to enhance the solubility. The E. coli competent cell line BL21(DE3) was used for expression of the protein. Cultures were grown at 37° C. for ˜4 hours until the cultures reached an optical density of 2.0 at 600 nm. The cultures were cooled to 20° C. and induced with 1 mM IPTG. Fresh ampicillin was added to a final concentration of 50 μg/ml and the cells were grown overnight at 20° C.
Cell pellets (3 L) were lysed for purification to yield 15-24 mgs of purified NS5B. The lysis buffer consisted of 20 mM Tris-HCl, pH 7.4, 500 mM NaCl, 0.5% triton X-100, 1 mM DTT, 1 mM EDTA, 20% glycerol, 0.5 mg/ml lysozyme, 10 mM MgCl2, 15 ug/ml deoxyribonuclease I, and Complete TM protease inhibitor tablets (Roche). After addition of the lysis buffer, frozen cell pellets were resuspended using a tissue homogenizer. To reduce the viscosity of the sample, aliquots of the lysate were sonicated on ice using a microtip attached to a Branson sonicator. The sonicated lysate was centrifuged at 100,000×g for 1 hr at 4° C. and filtered through a 0.2 μm filter unit (Corning).
The protein was purified using three sequential chromatography steps: Heparin sepharose CL-6B, polyU sepharose 4B, and Hitrap SP sepharose (Pharmacia). The chromatography buffers were identical to the lysis buffer but contained no lysozyme, deoxyribonuclease I, MgCl2 or protease inhibitor and the NaCl concentration of the buffer was adjusted according to the requirements for charging the protein onto the column. Each column was eluted with a NaCl gradient which varied in length from 5-50 column volumes depending on the column type. After the final chromatography step, the resulting purity of the enzyme is >90% based on SDS-PAGE analysis. The enzyme was aliquoted and stored at −80° C.
Standard HCV NS5B RdRp enzyme assay. HCV RdRp genotype 1b assays were run in a final volume of 60 μl in 96 well plates (Costar 3912). The assay buffer is composed of 20 mM Hepes, pH 7.5, 2.5 mM KCl, 2.5 mM MgCl2, 1 mM DTT, 1.6 U RNAse inhibitor (Promega N2515), 0.1 mg/ml BSA (Promega R3961), and 2% glycerol. All compounds were serially diluted (3-fold) in DMSO and diluted further in water such that the final concentration of DMSO in the assay was 2%. HCV RdRp genotype 1b enzyme was used at a final concentration of 28 nM. A polyA template was used at 6 nM, and a biotinylated oligo-dT12 primer was used at 180 nM final concentration. Template was obtained commercially (Amersham 27-4110). Biotinylated primer was prepared by Sigma Genosys. 3H-UTP was used at 0.6 μCi (0.29 μM total UTP). Reactions were initiated by the addition of enzyme, incubated at 30° C. for 60 min, and stopped by adding 25 μl of 50 mM EDTA containing SPA beads (4 μg/μl, Amersham RPNQ 0007). Plates were read on a Packard Top Count NXT after >1 hr incubation at room temperature.
Modified HCV NS5B RdRp enzyme assay. A modified enzyme assay was performed essentially as described for the standard enzyme assay except for the following: The biotinylated oligo dT12 primer was precaptured on streptavidin-coated SPA beads by mixing primer and beads in assay buffer and incubating at room temperature for one hour. Unbound primer was removed after centrifugation. The primer-bound beads were resuspended in 20 mM Hepes buffer, pH 7.5 and used in the assay at final concentrations of 20 nM primer and 0.67 μg/μl beads. Order of addition in the assay: enzyme (14 nM) was added to diluted compound followed by the addition of a mixture of template (0.2 nM), 3H-UTP (0.6 μCi, 0.29 μM), and primer-bound beads, to initiate the reaction; concentrations given are final. Reactions were allowed to proceed for 4 hours at 30° C.
IC50 values for compounds were determined using seven different [I]. […]

Data set [2] deals with HCV replicon. Put plainly: HCV replicon assay (FRET / luciferase reporter). The data set is classed as cell-based, HCV (HUH-7 cells). The conditions noted are these: Hepatitis C virus; HCV replicon cells. An excerpt: FRET Assay Preparation. To perform the HCV FRET screening assay, 96-well cell culture plates were used. The FRET peptide (Anaspec, Inc.) (Taliani et al., Anal. Biochem. 1996, 240, 60-67) contains a fluorescence donor, EDANS, near one end of the peptide and an acceptor, DABCYL, near the other end. The fluorescence of the peptide is quenched by […] resonance energy transfer (RET) between the donor and the acceptor, but as the NS3 protease cleaves the peptide the products are released from RET quenching and the fluorescence of the donor becomes apparent. The assay reagent was made as follows: 5× cell Luciferase cell culture lysis reagent from Promega (#E153A) diluted to 1× with dH2O, NaCl added to 150 mM final, the FRET peptide diluted to 20 μM final from a 2 mM stock.
To prepare plates, HCV replicon cells, with or without a Renilla luciferase reporter gene, were trypsinized and placed into each well of a 96-well plate with titrated test compounds added in columns 3 through 12; columns 1 and 2 contained a control compound (HCV protease inhibitor), and the bottom row contained cells without compound. The plates were then placed in a CO2 incubator at 37° C.
Assays. Subsequent to addition of the test compounds described above (FRET Assay Preparation), at various times the plate was removed and Alamar blue solution (Trek Diagnostics, #00-100) was added per well as a measure of cellular toxicity. After reading in a Cytoflour 4000 instrument (PE Biosystems), plates were rinsed with PBS and then used for FRET assay by the addition of 30 ul of the FRET peptide assay reagent described above (FRET Assay Preparation) per well. The plate was then placed into the Cytoflour 4000 instrument which had been set to 340 excite/490 emission, automatic mode for 20 cycles and the plate read in a kinetic mode. Typically, the signal to noise using an endpoint analysis after the reads was at least three-fold. Alternatively, after Alamar blue reading, plates were rinsed with PBS, 50 ul of DMEM (high glucose) without phenol red was added and plates were then used for luciferase assay using the Promega Dual-Glo Luciferase Assay System.
Compound analysis was determined by quantification of the relative HCV replicon inhibition and the relative cytotoxicity values. To calculate cytoxicity values, the average Alamar Blue fluorescence signals from the control wells were set as 100% non-toxic. The individual signals in each of the compound test wells were then divided by the average control signal and multiplied by 100% to determine […]. To calculate the HCV replicon inhibition values, an average background value was obtained from the two wells containing the highest amount of HCV protease inhibitor at the end of the assay period. These numbers were similar to those obtained from naïve Huh-7 cells.
The background numbers were then subtracted from the average signal obtained from the control wells and this number was used as 100% activity. The individual signals in each of the compound test wells were then divided by the averaged control values after background subtraction and multiplied by 100% to determine percent activity. EC50 values for a protease inhibitor titration were calculated as the concentration which caused a 50% reduction in FRET or luciferase activity. The two numbers generated for the compound plate, percent cytoxicity and percent activity were used to determine compounds of interest for further analysis.
The HCV replicon luciferase assay was developed to monitor the inhibitory effects of compounds described in the disclosure on HCV viral replication. Utilization of a replicon luciferase reporter assay was first described by Krieger et al (Krieger N, Lohmann V, and Bartenschlager R, J. Virol. 75(10):4614-4624 (2001)). HUH-7 cells, constitutively expressing the HCV replicon, were grown in Dulbecco's Modified Eagle Media (DMEM) (Gibco-BRL) containing 10% Fetal calf serum (FCS) (Sigma) and 1 mg/ml G418 (Gibco-BRL). […]
Background: A replicon is a self-replicating genome or part of one, used to study replication in cells.

For data set [3], the system named is HCV. The conditions noted are these: cited from earlier work.

T1 sequence (Q9WMX2 2420-2992): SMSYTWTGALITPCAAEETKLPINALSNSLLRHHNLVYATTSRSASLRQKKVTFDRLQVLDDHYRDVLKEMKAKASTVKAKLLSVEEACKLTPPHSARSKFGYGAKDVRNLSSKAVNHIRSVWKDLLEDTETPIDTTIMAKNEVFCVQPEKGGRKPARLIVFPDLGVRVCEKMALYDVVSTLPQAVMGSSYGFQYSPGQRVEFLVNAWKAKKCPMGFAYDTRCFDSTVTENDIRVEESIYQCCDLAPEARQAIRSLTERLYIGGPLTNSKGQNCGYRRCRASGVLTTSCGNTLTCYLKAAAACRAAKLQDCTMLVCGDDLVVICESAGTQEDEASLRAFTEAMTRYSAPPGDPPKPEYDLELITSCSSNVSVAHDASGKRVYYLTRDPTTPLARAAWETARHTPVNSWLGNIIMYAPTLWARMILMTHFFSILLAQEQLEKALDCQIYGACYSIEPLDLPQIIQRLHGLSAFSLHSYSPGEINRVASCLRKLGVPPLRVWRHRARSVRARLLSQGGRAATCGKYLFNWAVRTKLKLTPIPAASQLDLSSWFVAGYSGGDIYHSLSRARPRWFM

In the case of `CNC(=O)c1c(-c2ccc(F)cc2)oc2ccc(-c3cc(C(=O)NC4(c5ccc6ncccc6n5)CC4)cc(F)c3C)c(F)c12` [5-(5-(1-(1,5-naphthyridin-2-yl)cyclopropylcarbamoyl)-3-fluoro-2-methylphenyl)-4-fluoro-2-(4-fluorophenyl)-N-methylbenzofuran-3-carboxamide], the IC50 (commonly the midpoint of a concentration-inhibition curve) in data set [1] came to 70 nM. For the same compound, it took 100 nM to reach a half-maximal effect in data set [2] (EC50).

In data set [1], `CNC(=O)c1c(-c2ccc(F)cc2)oc2ccc(-c3cc(C(=O)NC4(c5ccc6cnccc6n5)CC4)c(OC)cc3C)c(F)c12` [5-(5-(1-(1,6-naphthyridin-2-yl)cyclopropylcarbamoyl)-4-methoxy-2-methylphenyl)-4-fluoro-2-(4-fluorophenyl)-N-methylbenzofuran-3-carboxamide] had an IC50 of 100 nM. For the same compound, the EC50 (in general, the concentration giving half of the maximal effect) in data set [2] worked out at 9 nM.

As for `CNC(=O)c1c(-c2ccc(F)cc2)oc2ccc(-c3cc(C(=O)NC4(c5ccc6ccncc6n5)CC4)c(OC)cc3C)c(F)c12` [5-(5-(1-(1,7-naphthyridin-2-yl)cyclopropylcarbamoyl)-4-methoxy-2-methylphenyl)-4-fluoro-2-(4-fluorophenyl)-N-methylbenzofuran-3-carboxamide], the IC50 in data set [1] came to 30 nM. In addition, in data set [2], the EC50 came out at 6 nM.

Take `CNC(=O)c1c(-c2ccc(F)cc2)oc2ccc(-c3cc(C(=O)N[C@H](C)c4nc5cnccc5o4)cc(F)c3C)c(F)c12` [5-(5-(1-(1H-imidazo[4,5-o]pyridin-2-yl)cyclopropylcarbamoyl)-2-methylphenyl)-4-fluoro-2-(4-fluorophenyl)-N-methylbenzofuran-3-carboxamide]: the IC50 in data set [1] was determined as 30 nM. For the same compound, the 50% effective concentration (EC50) in data set [2] amounted to 40 nM.

Consider `CNC(=O)c1c(-c2ccc(F)cc2)oc2cc(N(CCO)S(C)(=O)=O)c(C3CC3)cc12` [HCV-796], for which, in data set [3] (extended dosing of the combination regimens), the hepatic toxicity result is recorded as “hepatic toxicity observed”. In data set [3] (patients, single agent: transient decrease then rebound, more robust drop with interferon and ribavirin), the “HCV RNA levels in patients” value is recorded as “ability to reduce HCV RNA levels in patients”.

For alpha-interferon and ribavirin, the sustained efficacy in data set [3] (combination therapy (Poynard et al. 1998)) is reported as 40 % of patients.
